Data: patent US6613769B1, “Tryptase inhibitors” (Max-Planck-Gesellschaft zur Föderung der Wissenschaften. …, priority 1998, dated 2003)
pKi: −log10 of the molar value. Counter-ions that a name gives are not always drawn.

The compounds below were run against T1, human tryptase (Homo sapiens, UniProt P20231) (assay: Inhibition of human tryptase: cleavage of chromogenic substrate tos-Gly-Pro-Arg-pNA, equilibrium conditions). Conditions: tryptase from human lung tissue; 50 μg of heparin/ml; in the presence of substrate tos-Gly-Pro-Arg-pNA, 405 nm; read-out: Kiapp (apparent dissociation constant).
T1 construct: from tissue; host or cells: human lung tissue
Format: biochemical
Text: The documented pathophysiological effects of mast cell tryptase are brought about directly by the enzymic activity of the protease. Accordingly, they are reduced or blocked by inhibitors which inhibit the enzymatic activity of the tryptase. The equilibrium dissociation constant Ki of the enzyme-inhibitor complex is a suitable measure of the affinity of a reversible inhibitor for the target protease. This Ki value can be determined by measuring the effect of the inhibitor on the tryptase-induced cleavage of a chromogenic peptide-p-nitroanilide substrate.
The dissociation constants of the tryptase-inhibitor complexes are determined under equilibrium conditions in accordance with the general recommendations of Bieth (Bieth JG, Pathophysiological interpretation of kinetic constants of protease inhibitors, Bull. Europ. Physiopath. Resp. 16:183-195, 1980) and the methods of Sommerhoff et al. (Sommerhoff CP et al., A. Kazal-type inhibitor of human mast cell tryptase: Isolation from the medical leech Hirudo medicinalis, characterization, and sequence analysis, Biol. Chem. Hoppe-Seyler 375: 685-694, 1994).
Human tryptase is prepared in a pure state from lung tissue; the specific activity of the isolated protease, determined by means of titration, is normally 85% of the theoretical value. Constant quantities of tryptase are incubated with increasing quantities of the inhibitors in the presence of 50 μg of heparin/ml for stabilizing the protease. After the equilibrium has been established between the reaction partners, the remaining enzyme activity is determined after adding the peptide-p-nitroanilide substrate tos-Gly-Pro-Arg-pNA, the cleavage of which is monitored at 405 nm over a period of 3 min. Alternatively, the residual enzymic activity can also be determined using fluorogenic substrates. The apparent dissociation constants Kiapp (i.e. in the presence of substrate) are subsequently ascertained by nonlinear regression by fitting the enzyme rates to the general equation for reversible inhibitors (Morrison JF, Kinetics of the reversible inhibition of enzyme-catalysed reactions by tight-binding inhibitors, Biochim. Biophys. Acta 185, 269-286, 1969):
V1/V0=131 {Et+lt+Kiapp−[(Et+lt+Kiapp)^2−4Etlt]^½}/2Et
In this equation, V1, and V0 are the rates in the presence and absence of the inhibitor, respectively, and Et and lt are the concentrations of the tryptase and of the inhibitor.
The apparent dissociation constants which were determined for the compounds according to the invention are given in Table A below, in which the numbers of the compounds correspond to the numbers of the compounds in the examples.

T1 sequence (P20231 31-275): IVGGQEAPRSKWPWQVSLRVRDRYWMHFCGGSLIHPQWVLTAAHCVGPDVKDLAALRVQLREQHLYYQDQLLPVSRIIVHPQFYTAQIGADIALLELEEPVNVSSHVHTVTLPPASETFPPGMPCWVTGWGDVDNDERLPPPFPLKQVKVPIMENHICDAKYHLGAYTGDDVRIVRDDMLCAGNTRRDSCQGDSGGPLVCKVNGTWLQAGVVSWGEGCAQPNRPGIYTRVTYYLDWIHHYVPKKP

Row | Structure (SMILES) | pKi
1 | NCc1cccc(C(=O)N2CCN(C(=O)c3cccc(C(=O)N4CCN(C(=O)c5cccc(CN)c5)CC4)n3)CC2)c1 [Compound 1, Pyridine-2,6-dicarbobis[4-(3-aminomethylbenzoyl)-1-piperazide]] | 5.52
2 | NCc1cccc(C(=O)NC2CCN(C(=O)c3cccc(C(=O)N4CCC(NC(=O)c5cccc(CN)c5)CC4)n3)CC2)c1 [Compound 11, Pyridine-2,6-dicarbobis[4-(3-aminomethylbenzoylamino)-1-piperidide]] | 7.52
3 | NCC1CCC(C(=O)NC2CCN(C(=O)c3cccc(C(=O)N4CCC(NC(=O)C5CCC(CN)CC5)CC4)n3)CC2)CC1 (stereo not drawn) [Compound 15, Pyridine-2,6-dicarbobis[4-(4-aminomethylcyclohexyl-carbonylamino)-1-piperidide]] | 5.52
4 | NCC1CCC(C(=O)N2CCN(C(=O)Nc3ccc(Oc4ccc(NC(=O)N5CCN(C(=O)C6CCC(CN)CC6)CC5)cc4)cc3)CC2)CC1 (stereo not drawn) [Compound 17, bis{4-[4-(4-Aminomethyl)cyclohexanoylpiperazin-1-yl-]-carbonyl}-4,4′-diaminodiphenyl Ether Dihydrochloride] | 4.66
5 | NCc1cccc(C(=O)N2CCN(C(=O)Nc3ccc(Oc4ccc(NC(=O)N5CCN(C(=O)c6cccc(CN)c6)CC5)cc4)cc3)CC2)c1 [Compound 21, Bis{4-[4-(3-Aminomethyl)benzoylpiperazin-1-yl]-carbonyl}-4,4′-diaminodiphenyl Ether Dihydrochloride] | 7.00
6 | NCC1CCC(C(=O)NC2CCN(C(=O)NC3CCC(CC4CCC(NC(=O)N5CCC(NC(=O)C6CCC(CN)CC6)CC5)CC4)CC3)CC2)CC1 (stereo not drawn) [Compound 23, di{4-[4-(4-Aminomethyl)cyclohexanoylamino]piperidin-1-ylcarbamoyl}cyclohexylmethane Dihydrochloride] | 6.10
7 | CC(C)(c1ccc(OCC(=O)NCc2ccc(NC(=N)N)cc2)cc1)c1ccc(OCC(=O)NCc2ccc(NC(=N)N)cc2)cc1 [Compound 31, 2,2-bis-[4-(4-Guanidinylbenzylamino)carbonylmethoxy-phenyl]propane Dihydroacetate] | 6.70
8 | CC(C)(c1ccc(OCC(=O)NCC(=O)NCCCCN)cc1)c1ccc(OCC(=O)NCC(=O)NCCCCN)cc1 [Compound 34, 2,2-bis-[4-(10-Amino-3,6-diaza-2,5-dioxodecyloxy)-phenyl]propane Dihydrochloride] | 5.70
9 | CC(C)(c1ccc(OC(=O)N2CCN(C(=O)NCc3ccc(CN)cc3)CC2)cc1)c1ccc(OC(=O)N2CCN(C(=O)NCc3ccc(CN)cc3)CC2)cc1 [Compound 36, 2,2-bis-(4-[4-(4-Aminomethylbenzylcarbamoyl)-1-piperazinylcarbonyloxy]phenyl)propane Dihydrochloride] | 7.55
